For the assay, the species on record is Mus musculus. Briefly: Anticonvulsant activity in mouse. Format: functional, organism-based.

Active and inactive are the calls of the source. No cut-off for these calls is given here.

For `C[C@@H]1CC[C@@]2(NC1)O[C@H]1C[C@H]3[C@@H]4CC=C5C[C@@H](O[C@@H]6O[C@H](CO)[C@H](O)[C@H](O[C@@H]7O[C@H](CO)[C@@H](O)[C@H](O)[C@H]7O)[C@H]6O[C@@H]6O[C@@H](C)[C@H](O)[C@@H](O)[C@H]6O)CC[C@]5(C)[C@H]4CC[C@]3(C)[C@H]1[C@@H]2C`, the result was inactive.
The value for `C[C@@H]1CC[C@@]2(NC1)O[C@H]1C[C@H]3[C@@H]4CC=C5C[C@@H](O[C@@H]6O[C@H](CO)[C@@H](O[C@@H]7O[C@@H](C)[C@H](O)[C@@H](O)[C@H]7O)[C@H](O)[C@H]6O[C@@H]6O[C@@H](C)[C@H](O)[C@@H](O)[C@H]6O)CC[C@]5(C)[C@H]4CC[C@]3(C)[C@H]1[C@@H]2C` was “inactive”.

The values are drawn from ChEMBL document CHEMBL1151645, “Constituents of Solanum dasyphyllum Fruit” (J Nat Prod, 1985).
